Measured values published in paper PMC10895371, “Phosphorylation of the alpha-I motif in SYMRK drives root nodule organogenesis” (Proceedings of the National Academy of Sciences of the …, 2024).

Key:
[1] = target: T1, SYMRK (intracellular domain; SYMRK-WT) (Lotus japonicus, UniProt Q8LKX1, S877D/S885D/S889D/S893D); assay: nanoDSF thermal stability, […] nm fluorescence; type: binding; conditions: 1 mM ATP, 5 mM MgCl2, pH 7.5, 15 min on ice, 25 to 95 °C at 1 °C/min
T1 construct: intracellular kinase region with C-terminal alpha-I motif (intracellular domain modelled as 545-923); E. coli Rosetta 2, pAH10R7Sumo3C, tag cut with 3C, lambda-phosphatase dephosphorylated
T1 sequence (Q8LKX1 entry or part of it S877D/S885D/S889D/S893D): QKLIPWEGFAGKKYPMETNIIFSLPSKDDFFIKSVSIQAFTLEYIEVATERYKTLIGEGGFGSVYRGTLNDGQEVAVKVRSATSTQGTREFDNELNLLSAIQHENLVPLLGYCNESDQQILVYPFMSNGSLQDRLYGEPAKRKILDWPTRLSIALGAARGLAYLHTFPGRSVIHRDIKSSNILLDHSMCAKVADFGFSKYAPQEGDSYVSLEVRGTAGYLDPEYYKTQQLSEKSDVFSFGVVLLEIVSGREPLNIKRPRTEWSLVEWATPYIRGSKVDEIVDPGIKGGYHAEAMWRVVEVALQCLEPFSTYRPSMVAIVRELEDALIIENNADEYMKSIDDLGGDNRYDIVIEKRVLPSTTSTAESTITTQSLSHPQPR

[2] = target: T2, SYMRK (intracellular domain; SYMRK-WT) (Lotus japonicus, UniProt Q8LKX1, S877A/S885A/S889A/S893A); assay: nanoDSF thermal stability, […] nm fluorescence; type: binding; conditions: 1 mM ATP, 5 mM MgCl2, pH 7.5, 15 min on ice, 25 to 95 °C at 1 °C/min
T2 construct: intracellular kinase region with C-terminal alpha-I motif (intracellular domain modelled as 545-923); E. coli Rosetta 2, pAH10R7Sumo3C, tag cut with 3C, lambda-phosphatase dephosphorylated
T2 sequence (Q8LKX1 entry or part of it S877A/S885A/S889A/S893A): as the sequence (Q8LKX1 entry or part of it S877D/S885D/S889D/S893D) above, with D333A, D341A, D345A, D349A counted along it

[3] = target: T3, SYMRK (intracellular domain; SYMRK-WT) (Lotus japonicus, UniProt Q8LKX1); assay: nanoDSF thermal stability, […] nm fluorescence; type: binding; conditions: 1 mM ATP, 5 mM MgCl2, pH 7.5, 15 min on ice, 25 to 95 °C at 1 °C/min
T3 construct: intracellular kinase region with C-terminal alpha-I motif (intracellular domain modelled as 545-923); E. coli Rosetta 2, pAH10R7Sumo3C, tag cut with 3C, lambda-phosphatase dephosphorylated
T3 sequence (Q8LKX1 545-923 limits assumed): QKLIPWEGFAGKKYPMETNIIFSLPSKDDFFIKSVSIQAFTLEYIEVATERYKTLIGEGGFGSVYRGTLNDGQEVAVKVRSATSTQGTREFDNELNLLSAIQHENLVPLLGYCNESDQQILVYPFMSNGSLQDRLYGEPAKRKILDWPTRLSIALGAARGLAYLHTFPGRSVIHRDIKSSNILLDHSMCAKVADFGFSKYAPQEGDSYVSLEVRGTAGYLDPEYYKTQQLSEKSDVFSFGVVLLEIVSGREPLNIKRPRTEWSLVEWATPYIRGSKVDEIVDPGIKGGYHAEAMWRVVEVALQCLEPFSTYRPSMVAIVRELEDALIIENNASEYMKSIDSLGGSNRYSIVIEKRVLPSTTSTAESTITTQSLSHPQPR

[4] = target: T3, SYMRK (intracellular domain; SYMRK-WT); assay: radioactive kinase assay, SDS-PAGE autoradiography; type: biochemical; conditions: labelled compound; 100 nCi, 5 mM MgCl2, MBP co-substrate and autophosphorylation, pH 7.5, room temperature, 1 h
[5] = target: T2, SYMRK (intracellular domain; SYMRK-WT); assay: radioactive kinase assay, SDS-PAGE autoradiography; type: biochemical; conditions: labelled compound; 100 nCi, 5 mM MgCl2, MBP co-substrate and autophosphorylation, pH 7.5, room temperature, 1 h

Compound	thermal stabilization [1]	thermal stabilization [2]	thermal stabilization [3]	radioactive kinase assay, SDS-PAGE autoradiography [4]	radioactive kinase assay, SDS-PAGE autoradiography [5]
Nc1ncnc2c1ncn2[C@@H]1O[C@H](COP(=O)(O)OP(=O)(O)OP(=O)(O)O)[C@@H](O)[C@H]1O [ATP]	we purified SYMRK-4D and found it to be monodisperse, thermostable, ATP binding, and catalytically active	all proteins except the catalytically inactive SYMRK-K622E control showed ATP-binding capacity	all proteins except the catalytically inactive SYMRK-K622E control showed ATP-binding capacity	–	–
Nc1ncnc2c1ncn2[C@@H]1O[C@H](COP(=O)(O)OP(=O)(O)OP(=O)(O)O)[C@@H](O)[C@H]1O [γ-32P-labeled ATP]	–	–	–	SYMRK-4A and SYMRK-WT are active kinases capable of both autophosphorylation and transphosphorylation	SYMRK-4A and SYMRK-WT are active kinases capable of both autophosphorylation and transphosphorylation
